Biological target: ATP-dependent translocase ABCB1 (Homo sapiens, UniProt P08183)
Experiment: TP_TRANSPORTER: transepithelial transport (basal to apical) in Caco-2 cells
Assay type: functional, cell-based

Sequence of ATP-dependent translocase ABCB1 (P08183 whole entry): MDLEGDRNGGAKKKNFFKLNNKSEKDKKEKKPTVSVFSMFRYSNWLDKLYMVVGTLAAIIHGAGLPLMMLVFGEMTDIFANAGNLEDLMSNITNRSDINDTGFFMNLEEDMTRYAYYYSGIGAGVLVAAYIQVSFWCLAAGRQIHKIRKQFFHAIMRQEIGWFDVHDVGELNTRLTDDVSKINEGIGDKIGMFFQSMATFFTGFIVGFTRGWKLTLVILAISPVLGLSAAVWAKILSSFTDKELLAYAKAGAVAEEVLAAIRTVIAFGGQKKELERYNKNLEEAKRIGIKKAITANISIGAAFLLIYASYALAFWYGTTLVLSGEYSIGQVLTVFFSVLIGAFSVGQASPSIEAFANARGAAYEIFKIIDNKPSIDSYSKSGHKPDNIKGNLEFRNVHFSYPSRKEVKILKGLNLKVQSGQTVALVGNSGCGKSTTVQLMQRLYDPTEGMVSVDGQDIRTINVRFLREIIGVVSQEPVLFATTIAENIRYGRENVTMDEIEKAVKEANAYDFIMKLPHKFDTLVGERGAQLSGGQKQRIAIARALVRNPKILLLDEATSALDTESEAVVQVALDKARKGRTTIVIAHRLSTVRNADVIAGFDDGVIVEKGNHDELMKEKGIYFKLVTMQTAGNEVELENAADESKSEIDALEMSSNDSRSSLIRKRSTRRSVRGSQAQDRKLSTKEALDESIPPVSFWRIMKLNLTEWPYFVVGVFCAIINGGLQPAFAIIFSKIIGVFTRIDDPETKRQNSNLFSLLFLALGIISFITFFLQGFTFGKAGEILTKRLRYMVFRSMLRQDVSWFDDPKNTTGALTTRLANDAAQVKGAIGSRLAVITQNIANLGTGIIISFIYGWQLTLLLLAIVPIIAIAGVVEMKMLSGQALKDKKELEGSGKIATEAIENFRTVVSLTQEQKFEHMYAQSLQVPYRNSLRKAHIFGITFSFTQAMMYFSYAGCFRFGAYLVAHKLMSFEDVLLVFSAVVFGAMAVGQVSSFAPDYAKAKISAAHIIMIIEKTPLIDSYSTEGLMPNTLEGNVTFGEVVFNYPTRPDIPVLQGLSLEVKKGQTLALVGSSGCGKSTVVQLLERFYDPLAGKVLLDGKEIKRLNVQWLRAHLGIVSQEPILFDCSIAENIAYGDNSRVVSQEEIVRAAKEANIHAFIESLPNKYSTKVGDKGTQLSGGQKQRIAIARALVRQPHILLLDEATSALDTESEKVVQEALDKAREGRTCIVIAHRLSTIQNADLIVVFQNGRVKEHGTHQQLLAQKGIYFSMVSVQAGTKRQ

Activity: substrate [+]
Structure (SMILES): CNC(=C[N+](=O)[O-])NCCSCc1ccc(CN(C)C)o1 [RANITIDINE]

Source: ChEMBL document CHEMBL2074067, “TP-search Transporter Database” (J Physiol, 1994)
